# Values joined by “and” are separate entries in the source; they are usually repeats but may differ in a detail not shown here. Identical values can stand only once. Inconclusive results and toxic doses are left out. Peptide text beside a SMILES is read from it. * marks the point of attachment. Cbz = O=C(OCc1ccccc1)*
# Tested on: P388 leukemia ip, CD2F1 mice, survival T/C
# Assay: NCI In Vivo Anticancer Drug Screen. Data for tumor model P388 Leukemia (intraperitoneal) in CD2F1 (CDF1) mice
# Conditions: endpoint: median survival time, higher = longer survival
# Summary of the method: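 Mice carrying the transplanted tumor received test compound or vehicle. Survival was recorded in each group, and the value is the treated-group measurement divided by that of the vehicle-treated control group.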
# [1] = dose: 60.0 mg/kg/injection, schedule: Q01DX005 (ip), vehicle: saline with Tween-80
# [2] = dose: 120.0 mg/kg/injection, schedule: Q01DX005 (ip), vehicle: saline with Tween-80
# [3] = dose: 240.0 mg/kg/injection, schedule: Q01DX005 (ip), vehicle: saline with Tween-80
# [4] = dose: 100.0 mg/kg/injection, schedule: Q04DX002 (ip), vehicle: saline with Tween-80
# [5] = dose: 200.0 mg/kg/injection, schedule: Q04DX002 (ip), vehicle: saline with Tween-80
# [6] = dose: 400.0 mg/kg/injection, schedule: Q04DX002 (ip), vehicle: saline with Tween-80
# [7] = dose: 50.0 mg/kg/injection, schedule: Q01DX009 (ip), vehicle: saline with Tween-80
# [8] = dose: 100.0 mg/kg/injection, schedule: Q01DX009 (ip), vehicle: saline with Tween-80
# [9] = dose: 200.0 mg/kg/injection, schedule: Q01DX009 (ip), vehicle: saline with Tween-80
smiles,measurement,setting,value
CC(Cc1ccccc1)N(C)Cc1ccc(-c2ccccc2)o1 (stereo not given),T/C,[1],100 % of control
same,T/C,[2],108 % of control
same,T/C,[3],109 % of control
O=S(=O)(Nc1ccc(Br)c2ccccc12)c1ccccc1,T/C,"dose: 18.75 mg/kg/injection, schedule: Q01DX001 (ip), vehicle: saline with Tween-80",95 % of control
same,T/C,"dose: 37.5 mg/kg/injection, schedule: Q01DX001 (ip), vehicle: saline with Tween-80",95 % of control
same,T/C,"dose: 75.0 mg/kg/injection, schedule: Q01DX001 (ip), vehicle: saline with Tween-80",95 % of control
Cc1ccc(O)c(N=Nc2c(O)cc(S(=O)(=O)O)c3ccccc23)c1,T/C,"dose: 50.0 mg/kg/injection, schedule: Q01DX009 (ip), vehicle: suspension in saline",100 % of control
same,T/C,"dose: 100.0 mg/kg/injection, schedule: Q01DX009 (ip), vehicle: suspension in saline",95 % of control
COc1cc(/C=N/NC(=O)CN(C)C)cc(OC)c1N(CCCl)CCCl,T/C,"dose: 6.25 mg/kg/injection, schedule: Q01DX009 (ip), vehicle: Klucel (hydroxypropylcellulose) (HPC)",116 % of control
same,T/C,"dose: 25.0 mg/kg/injection, schedule: Q01DX009 (ip), vehicle: Klucel (hydroxypropylcellulose) (HPC)",152 % of control
same,T/C,"dose: 50.0 mg/kg/injection, schedule: Q01DX009 (ip), vehicle: Klucel (hydroxypropylcellulose) (HPC)",186 % of control and 189 % of control
same,T/C,"dose: 100.0 mg/kg/injection, schedule: Q01DX009 (ip), vehicle: Klucel (hydroxypropylcellulose) (HPC)",93 % of control
O=C1Oc2nc3ccccc3cc2/C1=C/c1ccccc1,T/C,[4],89 % of control
same,T/C,[5],92 % of control
same,T/C,[6],99 % of control
O=c1c2ccccc2c2ccccc2n1O,T/C,"dose: 25.0 mg/kg/injection, schedule: Q04DX003 (ip), vehicle: saline with Tween-80",99 % of control
same,T/C,"dose: 50.0 mg/kg/injection, schedule: Q04DX003 (ip), vehicle: saline with Tween-80",99 % of control
same,T/C,"dose: 100.0 mg/kg/injection, schedule: Q04DX003 (ip), vehicle: saline with Tween-80",97 % of control
same,T/C,"dose: 200.0 mg/kg/injection, schedule: Q04DX003 (ip), vehicle: saline with Tween-80",97 % of control
Oc1ccc(O)cc1,T/C,"dose: 12.5 mg/kg/injection, schedule: Q01DX009 (ip), vehicle: saline with Tween-80",106 % of control
same,T/C,"dose: 25.0 mg/kg/injection, schedule: Q01DX009 (ip), vehicle: saline with Tween-80",113 % of control
same,T/C,[7],122 % of control
same,T/C,[8],150 % of control
CS/C(=C\C=Nc1ccccc1)c1ccccc1,T/C,[4],103 % of control
same,T/C,[5],100 % of control
same,T/C,[6],109 % of control
CC1NC(=O)C2Cc3ccc(O)c(c3)Oc3cccc(c3)C(O)C(C(=O)N2C)N(C)C(=O)C(C)NC(=O)C(Cc2ccc(O)c(O)c2)N(C)C(=O)C(C)NC1=O (stereo not given),T/C,"dose: 16.0 mg/kg/injection, schedule: Q01DX009 (ip), vehicle: distilled water + Tween-80",112 % of control
same,T/C,"dose: 32.0 mg/kg/injection, schedule: Q01DX009 (ip), vehicle: distilled water + Tween-80",112 % of control
same,T/C,"dose: 64.0 mg/kg/injection, schedule: Q01DX009 (ip), vehicle: distilled water + Tween-80",122 % of control
O=c1[nH]c2cc([N+](=O)[O-])ccc2nc1/C=C(\O)c1cccnc1,T/C,"dose: 60.0 mg/kg/injection, schedule: Q01DX005 (ip), vehicle: Klucel (hydroxypropylcellulose) (HPC)",94 % of control
same,T/C,"dose: 120.0 mg/kg/injection, schedule: Q01DX005 (ip), vehicle: Klucel (hydroxypropylcellulose) (HPC)",88 % of control
same,T/C,"dose: 240.0 mg/kg/injection, schedule: Q01DX005 (ip), vehicle: Klucel (hydroxypropylcellulose) (HPC)",94 % of control
C(=C\c1ccco1)/c1ccnnc1,T/C,"dose: 12.5 mg/kg/injection, schedule: Q01DX009 (ip), vehicle: saline",97 % of control
same,T/C,"dose: 25.0 mg/kg/injection, schedule: Q01DX009 (ip), vehicle: saline",109 % of control
same,T/C,"dose: 50.0 mg/kg/injection, schedule: Q01DX009 (ip), vehicle: saline",108 % of control and 97 % of control
Cc1cc(C(C)CC(=O)O)c(C)c(C)c1C (stereo not given),T/C,[7],96 % of control
same,T/C,[8],93 % of control
same,T/C,[9],108 % of control
CC(=O)N1C2=CCCC3CCCCC23c2ccccc21 (stereo not given),T/C,[7],98 % of control
same,T/C,[8],93 % of control
same,T/C,[9],89 % of control
same,T/C,"dose: 400.0 mg/kg/injection, schedule: Q01DX009 (ip), vehicle: saline with Tween-80",95 % of control
COC(=O)C(CO)NC(=O)C(CO)NC(=O)OCc1ccccc1 (stereo not drawn) (Cbz-Ser-Ser-OMe; configuration not given here),T/C,"dose: 50.0 mg/kg/injection, schedule: Q01DX005 (ip), vehicle: Klucel (hydroxypropylcellulose) (HPC)",100 % of control
same,T/C,"dose: 100.0 mg/kg/injection, schedule: Q01DX005 (ip), vehicle: Klucel (hydroxypropylcellulose) (HPC)",98 % of control
same,T/C,"dose: 200.0 mg/kg/injection, schedule: Q01DX005 (ip), vehicle: Klucel (hydroxypropylcellulose) (HPC)",101 % of control
COc1ccc(C[n+]2ccc3ccccc3c2C#N)cc1OC,T/C,"dose: 12.5 mg/kg/injection, schedule: Q04DX002 (ip), vehicle: saline",111 % of control
same,T/C,"dose: 25.0 mg/kg/injection, schedule: Q04DX002 (ip), vehicle: saline",109 % of control
CC(C)(C)c1ccc(C(C)(C)C)c(N2C(=O)c3ccc4c5ccc6c7c(ccc(c8ccc(c3c48)C2=O)c75)C(=O)N(c2cc(C(C)(C)C)ccc2C(C)(C)C)C6=O)c1,T/C,[1],95 % of control
same,T/C,[2],90 % of control
same,T/C,[3],99 % of control

# — PubChem BioAssay AID330 (DTP/NCI, 2004)
